Experimental data reported in publication PMC2375318, “Inhibition of the alpha-ν integrins with a cyclic RGD peptide impairs angiogenesis, growth and metastasis of solid tumours in vivo” (British Journal of Cancer, 2002).
Non-standard residues stand in square brackets, D forms with d. Residues, ends and D or L forms follow the SMILES beside them. NMeV = CN[C@H](C(=O)O)C(C)C; βAla = NCCC(=O)O

Legend:
subcutaneous A-Mel-3 = assay: Growth and lymph node metastasis of subcutaneous A-Mel-3 tumours; type: in vivo, Syrian Golden hamster; conditions: for Subcutaneous tumour volume / growth pattern: calliper measurement every other day from day 5, 30 mg kg^−1 i.p. every 12 h
Description: Male Syrian Golden Hamsters (weight, age and housing as described above) were anaesthetised with pentobarbital and the dorsal skin was shaven and chemically depilated (Pilcamed, Schwarzkopf, Germany). Cells (4 to 6×10^6) of the A-Mel-3 were suspended in a 10 μl volume and injected s.c. over the lumbosacral region of the dorsal skin. This is considered to cause the least distress upon the animal because the dorsal skin is extremely expansible. Starting on day 5 after tumour cell implantation, the longer (l) and shorter (w) perpendicular axes and the height (h) of each tumour nodule were measured with callipers every other day. Metastases of the animals were determined by palpation of axillar and inguinal lymph nodes. The day when metastases were first palpable the animal was defined as metastasised. To minimise the pain and distress of the animals no biopsies were taken from the lymph nodes during the observation time. This was due to the known fact that the axillar or inguinal lymph nodes were the most frequent sites of metastasis formation ([Fortner et al, 1961]; [Weiss et al, 1990]). After the end of the experiments when animals were euthanised, biopsies were taken to confirm histologically the invasion of the lymph nodes. Tumour volume was calculated according to the formula Vt=0.837×l×w×h ([Weiss et al, 1990]).
(§1) The cyclic integrin αv antagonist EMD121974 (cyclic Arg-Gly-Asp-D-Phe(N-methyl)Val) ([Dechantsreiter et al, 1999]) and the control peptide EMD135981 (cyclic Arg-β-Ala-Asp-D-Phe(N-methyl)Val) were synthesised and characterised at Merck KgAa (Darmstadt, Germany). In pilot studies pharmacokinetics of the peptides were compared after intravenous and intraperitoneal injection in hamsters. […] Therefore, we chose the following set-up for administration: Peptides were dissolved in PBS (10 mg ml^−1). One day after implantation of tumour cells, animals were randomly assigned to two groups (n=6) and RGD-peptide EMD121974 or control-peptide EMD135981 were given i.p. every 12 h (30 mg kg^−1 b.w.) until the end of the experiments.
Results are presented as mean±s.e.m. Data were evaluated using Wilcoxon–Mann–Whitney U and Kruskal–Wallis test, respectively (SigmaStat; Jandel Scientific, San Rafael, CA, USA). Metastasis analysis was performed according to the Kaplan–Meier method ([Kaplan and Meier, 1958]) and the differences were compared for statistical significance using the Cox-F test ([Lee, 1975], [1980]) with the statistical software program Statistica (StatSoft, Inc, 1997, Tulsa, OK, USA). P values smaller than 5% were considered to be significant.

[1] = test system: amelanotic hamster melanoma A-Mel-3; assay: Tumour growth (tumour area) in the dorsal skinfold chamber by video macroscopy; type: in vivo, Syrian Golden hamster; conditions: 30 mg kg^−1 i.p. every 12 h; for Tumour area: n=6, mean±s.e.m.
Description: (§2) For quantification of tumour angiogenesis, a dorsal skinfold chamber preparation consisting of two symmetrical titanium frames was surgically implanted into the dorsal skin as described earlier in detail ([Asaishi et al, 1981]; [Endrich et al, 1982]). This is considered to cause the least distress upon the animal because the dorsal skin is extremely expansible. Following implantation of the transparent chamber and a recovery period of 48 h from anaesthesia and microsurgery, preparations fulfilling the criteria of an intact microcirculation were implanted with 2×10^5 cells of the amelanotic melanoma of the hamster A-Mel-3 ([Fortner et al, 1961]). Fine polyethylene catheters (PE10, inner diameter 0.28 mm) were permanently inserted into the right jugular vein 48 h before first measurement to allow injection of fluorescent agents for intravital fluorescence microscopy.
(§3) Quantification of tumour angiogenesis using intravital fluorescence microscopy have been described in detail elsewhere ([Asaishi et al, 1981]; [Dellian et al, 1995], [1996]). In brief, the awake animal was trained to crawl into a transparent plastic tube and was placed on a custom-made stage under a modified Leitz microscope (Orthoplan; Leitz, Munich, Germany). FITC-labelled dextran (Sigma, Deisenhofen, Germany; MW 500000; 0.05–0.1 ml of a 5% solution in 0.9% NaCl) as a plasma marker and rhodamine 6G (Molecular Probes, Eugene, OR, USA; 0.04 ml of a 0.05% solution in 0.9% NaCl) to label white blood cells in vivo, were injected i.v. to visualise microcirculation and leucocyte–endothelium interaction, respectively. […] Selective observation of FITC-labelled plasma was possible using epi-illumination with a 100 W mercury lamp attached to a Ploemopack illuminator with a Leitz I2/3 filter block (excitation 450–490 nm, emission ⩽515 nm) and rhodamine 6G-stained leucocytes were visualised using a Leitz N2 filter block (excitation 530–560 nm, emission ⩽580 nm). Intravital microscopy was performed 3, 5, 9 and 13 days after implantation of the tumour cells. At least 3–5 sites of interest per animal were randomly selected in centre and periphery of the tumour. Images were acquired by a SIT video camera (C2400-08; Hamamatsu Herrsching, Germany) and recorded on S-VHS video tape (Sony) for subsequent analysis. Parallel to microvascular observations the area covered by tumour in the chamber preparation was registered on videotape using a Leitz macroscope with video camera (XC-77; Sony) to evaluate tumour growth. The tumour area (mm^2) was quantified from videotape by digital image analysis.
as §1

[2] = test system: amelanotic hamster melanoma A-Mel-3; assay: Intravital fluorescence microscopy of tumour angiogenesis and microcirculation in the dorsal skinfold chamber; type: in vivo, Syrian Golden hamster; conditions: for Appearance of tumour vasculature: 3 days after tumour cell implantation, FITC-Dextran plasma marker; for Functional vessel density (FVD): 30 mg kg^−1 b.w. i.p. every 12 h from day 1, n=6, mean±s.e.m.; for Leucocyte–endothelium interaction in tumour microvessels: rhodamine 6G-stained leucocytes
Description: as §2, §3
Analysis of microcirculatory parameters was performed off-line from video tape by an image analysis system (Cap Image; Zeintl, Heidelberg, Germany). This system described in detail by [Zeintl et al (1989)] and [Klyscz et al (1997)] allows measurement of functional vessel density (FVD) as a parameter of angiogenic activity ([Dellian et al, 1996]). FVD is defined as the total length of perfused microvessels per unit area of observation and is given in cm^−1. Red blood cell velocity (vRBC) was quantified with the line shift diagram method according to [Klyscz et al (1997)] in mm s^−1. Rolling leucocytes were defined as population of cells temporarily interacting with the vessel wall and thus having a velocity at least 50% below vRBC in the same vessel. Adherent leucocytes were given as the number of leucocytes remaining stationary for at least 30 s per square millimetre of vessel wall surface ([Atherton and Born, 1972]; [Dellian et al, 1996]).
(§4) The cyclic integrin αv antagonist EMD121974 (cyclic Arg-Gly-Asp-D-Phe(N-methyl)Val) ([Dechantsreiter et al, 1999]) and the control peptide EMD135981 (cyclic Arg-β-Ala-Asp-D-Phe(N-methyl)Val) were synthesised and characterised at Merck KgAa (Darmstadt, Germany). In pilot studies pharmacokinetics of the peptides were compared after intravenous and intraperitoneal injection in hamsters. […]

[3] = Pilot pharmacokinetics after intravenous and intraperitoneal injection; type: in vivo, hamster; conditions: hamsters, pilot study
Description: as §1

[4] = Tolerability during treatment (side effects, body weight, behaviour); type: in vivo, Syrian Golden hamster; conditions: 30 mg kg^−1 i.p. twice a day
Description: Experiments were performed with male Syrian Golden Hamsters (6–8 weeks old, 50–60 g body weight (bw)) in accordance with institutional guidelines after approval of the animal committee of the Bavarian state. The animals were housed one per cage and had free access to tap water and standard laboratory food throughout the experiments. Animals were inspected at least two times a day by specialised animal colony staff to assure a normal clinical condition (including appearance, posture, behaviour and physiological responses). Particular attention was given to body weight and any signs of discomfort, ulceration or inflammation. All surgical procedures were performed under pentobarbital anaesthesia (50 mg kg^−1 b.w., i.p.; Nembutal, Sanofia-Leva, Hannover, Germany). The experiments met all the standards required by the UKCCCR guidelines for the welfare of animals in experimental neoplasia (United Kingdom Co-ordinating Committee on Cancer Research ([UKCCCR), 1998]).
as §4

[5] = day 13 after tumour implantation

Structure (SMILES) | Subcutaneous tumour volume / growth pattern (subcutaneous A-Mel-3) | Effect on tumour growth of 30 mg kg^−1 every 12 h compared to 30 mg every 2 days (subcutaneous A-Mel-3; pilot study) | Tumour area ([1]; day 9) [mm^2] | Tumour area ([1]; day 13) [mm^2] | Tumour area versus controls ([1]; days 3 and 5) | Appearance of tumour vasculature [2] | Functional vessel density (FVD) ([2]; day 3 after tumour cell implantation) [cm⁻¹] | Functional vessel density (FVD) [2, 5] [cm⁻¹] | Red blood cell velocity (vRBC) versus control peptide ([2]; days 9 and 13, 30 mg kg^−1 i.p. every 12 h) | Vessel diameters, RGD peptide versus control peptide ([2]; intravital microscopy, 30 mg kg^−1 i.p. every 12 h) | Leucocyte–endothelium interaction in tumour microvessels ([2]; 30 mg kg^−1 i.p. every 12 h) | half-life ([3]; Syrian Golden, hamster, plasma, ip, after intraperitoneal injection, read-out: Plasma half-life time) [min] | Area under the curve, intraperitoneal versus intravenous administration [3] | Side effects in treated animals [4] | Body weight ([4]; control and treated animals) | Day lymph node metastasis first palpable (subcutaneous A-Mel-3; in two animals of the group, palpation) [days] | Palpable lymph node metastasis on day 11 (subcutaneous A-Mel-3; two days after day 9, palpation of axillar and inguinal lymph nodes) | Day on which FVD reached its maximum value ([2]; measurements on days 3, 5, 9 and 13, 30 mg kg^−1 i.p. every 12 h) [days]
CC(C)[C@H]1C(=O)N[C@@H](CCCNC(=N)N)C(=O)NCC(=O)N[C@@H](CC(=O)O)C(=O)N[C@H](Cc2ccccc2)C(=O)N1C [EMD121974, cyclic Arg-Gly-Asp-D-Phe(N-methyl)Val] | significantly smaller in comparison to controls on days 7 until 15 | slightly higher effect on tumour growth | 20.5±1.4 | 49.1±4.8 | slightly smaller than controls | only individual sprouts as signs of early angiogenesis were visible | 32.7 ± 12.1 | 156.9 ± 15.6 | slightly lower | no differences | almost absent | 47 | similar | no side effects were observed | increased similar in control and treated animals |  |  | 
CC(C)[C@H]1C(=O)N[C@@H](CCCNC(=N)N)C(=O)NCCC(=O)N[C@@H](CC(=O)O)C(=O)N[C@H](Cc2ccccc2)C(=O)N1C [EMD135981, cyclic Arg-β-Ala-Asp-D-Phe(N-methyl)Val, reference compound] (cyclo(D[dF][NMeV]R[βAla])) | nearly exponential growth |  | 28.1±3.2 | 80.94±6.1 |  | dense, chaotic structured network |  | 108.2 ± 10.6 |  |  | almost absent |  |  |  |  | 9 | palpable metastasis was found in all control animals | 5
